Data on 22 compounds can be found in US20240124442A1, “TRICYCLIC-AMIDO-BICYCLIC PRMT5 INHIBITORS” (AMGEN INC., priority 2021, published 2024).

One test relates to HCT116 WT cells. Put plainly: HCT116 WT (parent) cell line proliferation / cell viability (CellTiter-Glo, 6 days). It is filed as cell-based. The following applies: Homo sapiens, HCT-116, 144 h, 6 days treatment. Put shortly: (§1)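 Isogenic HCT116 pair (parental and MTAP-knockout) in RPMI 1640 + 10% FBS, treated 6 days with 8–9-point 1:3 dilutions from 1 or 10 μM top, or 22-point 1:2 dilutions from 10 or 50 μM top. Viability by CellTiter-Glo luminescence; IC50 from 4-parameter logistic fit or sigmoidal fit with Hill slope fixed at −1.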

For a further test, the system named is HCT116 MTAP null cells. The test is described as follows: HCT116 MTAP null cell line proliferation / cell viability (CellTiter-Glo, 6 days). Type of test: cell-based. The following applies: 144 h; HCT116 MTAP null cells, 6 days treatment, CellTiter-Glo cell viability; read-out: HCT-116 MTAP null IC50. Put shortly: as §1

One may read the IC50 as the concentration that inhibits the measured activity by half. Turning to `CN(C(=O)c1ccc2nc(N)c3cnn(C)c3c2c1)[C@@H]1COc2cc(-c3cc(F)cc(OC(F)F)c3)ccc21` [Example 659, 4-amino-N-((3S)-6-(3-(difluoromethoxy)-5-fluorophenyl)-2,3-dihydro-1-benzofuran-3-yl)-N,1-dimethyl-1H-pyrazolo[4,3-c]quinoline-8-carboxamide], the IC50 in the test with HCT116 WT cells worked out at 1280 nM; with HCT116 MTAP null cells it was 25 nM.
`CN(C(=O)c1ccc2nc(N)c3cnn(C)c3c2c1)[C@@H]1COc2cc(-c3cc(C(F)(F)F)ccc3F)ccc21` [Example 660, 4-amino-N-((3S)-6-(2-fluoro-5-(trifluoromethyl)phenyl)-2,3-dihydro-1-benzofuran-3-yl)-N,1-dimethyl-1H-pyrazolo[4,3-c]quinoline-8-carboxamide]: the concentration for half-maximal inhibition (IC50) with HCT116 WT cells came out at 657 nM; in the test with HCT116 MTAP null cells, 15 nM.
Take `CN(C(=O)c1ccc2nc(N)c3cnn(C)c3c2c1)[C@@H]1COc2cc(-c3ccc(C(F)(F)F)cc3F)ccc21` [Example 661, 4-amino-N-((3S)-6-(2-fluoro-4-(trifluoromethyl)phenyl)-2,3-dihydro-1-benzofuran-3-yl)-N,1-dimethyl-1H-pyrazolo[4,3-c]quinoline-8-carboxamide]: the IC50 in the test on HCT116 WT cells came to 481 nM; with HCT116 MTAP null cells it was 14 nM.
For the compound `CN(C(=O)c1ccc2nc(N)c3cnn(C)c3c2c1)[C@@H]1COc2cc(-c3ccnc(OCC(F)(F)F)c3)ccc21` [Example 662, 4-amino-N,1-dimethyl-N-((3S)-6-(2-(2,2,2-trifluoroethoxy)-4-pyridinyl)-2,3-dihydro-1-benzofuran-3-yl)-1H-pyrazolo[4,3-c]quinoline-8-carboxamide], the IC50 was 1120 nM in the test on HCT116 WT cells and 21 nM in the test on HCT116 MTAP null cells.
With `CN(C(=O)c1cc2c3c(c(N)nc2cc1F)COC3)[C@@H]1COc2cc(-c3ccc(S(F)(F)(F)(F)F)cc3)ccc21` [Example 667, 4-amino-7-fluoro-N-methyl-N-((3S)-6-(4-(pentafluoro-lambda~6 ~- sulfanyl)phenyl)-2,3-dihydro-1-benzofuran-3-yl)-1,3-dihydrofuro[3,4-c]quinoline-8-carboxamide], the 50% inhibitory concentration (IC50) amounted to 7060 nM in the test on HCT116 WT cells and 383 nM in the test with HCT116 MTAP null cells.
On to `CN(C(=O)c1ccc2nc(N)c3cnn(C)c3c2c1)[C@@H]1COc2cc(-c3ccc(S(F)(F)(F)(F)F)cc3)ccc21` [Example 668, 4-amino-N,1-dimethyl-N-((3S)-6-(4-(pentafluoro-lambda~6~- sulfanyl)phenyl)-2,3-dihydro-1-benzofuran-3-yl)-1H-pyrazolo[4,3-c]quinoline-8-carboxamide], for which the concentration for half-maximal inhibition (IC50) in the test with HCT116 WT cells worked out at 2920 nM; in the test with HCT116 MTAP null cells, 85 nM.
`COc1ccc2c(c1)OC[C@H]2N(C)C(=O)c1ccc2nc(N)c3cnn(C)c3c2c1` [Example 671, (S)-4-amino-N-(6-methoxy-2,3-dihydrobenzofuran-3-yl)-N,1-dimethyl-1H-pyrazolo[4,3-c]quinoline-8-carboxamide]: the IC50 turned out to be 4280 nM in the test with HCT116 WT cells and 34 nM with HCT116 MTAP null cells.
Take `CN(C(=O)c1ccc2nc(N)c3cnn(C)c3c2c1)[C@@H]1COc2cc(OC3CC3)ccc21` [Example 672, (S)-4-amino-N-(6-cyclopropoxy-2,3-dihydrobenzofuran-3-yl)-N,1-dimethyl-1H-pyrazolo[4,3-c]quinoline-8-carboxamide 2,2,2-trifluoroacetate]: the half-inhibitory concentration (IC50) stood at 3520 nM with HCT116 WT cells and 44 nM in the test with HCT116 MTAP null cells.
Regarding `CN(C(=O)c1ccc2nc(N)c3cnn(C)c3c2c1)[C@@H]1COc2ccccc21` [Example 673, (S)-4-amino-N-(2,3-dihydrobenzofuran-3-yl)-N,1-dimethyl-1H-pyrazolo[4,3-c]quinoline-8-carboxamide 2,2,2-trifluoroacetate], the IC50 in the test on HCT116 WT cells came out at 13100 nM; in the test on HCT116 MTAP null cells, 120 nM.
The corresponding values for `CCOc1ccc2c(c1)OC[C@H]2N(C)C(=O)c1cc2c3c(c(N)nc2cn1)COC3` [Example 674, 4-amino-N-((3S)-6-ethoxy-2,3-dihydro-1-benzofuran-3-yl)-N-methyl-1,3-dihydrofuro[3,4-c][1,7]naphthyridine-8-carboxamide] are 8610 nM and 156 nM.
`CCOc1ccc2c(c1)OC[C@H]2N(C)C(=O)c1ccc2nc(N)c3cnn(C)c3c2c1` [Example 675, 4-amino-N-((3S)-6-ethoxy-2,3-dihydro-1-benzofuran-3-yl)-N,1-dimethyl-1H-pyrazolo[4,3-c]quinoline-8-carboxamide]: the IC50 is 2750 nM in the test with HCT116 WT cells and 25 nM in the test with HCT116 MTAP null cells.
With `CN(C(=O)c1ccc2nc(N)c3cnn(C)c3c2c1)[C@@H]1COc2cc(OC3CCC3)ccc21` [Example 676, 4-amino-N-((3S)-6-(cyclobutyloxy)-2,3-dihydro-1-benzofuran-3-yl)-N,1-dimethyl-1H-pyrazolo[4,3-c]quinoline-8-carboxamide], the IC50 amounted to 2590 nM in the test with HCT116 WT cells and 40 nM in the test with HCT116 MTAP null cells.
The corresponding values for `CN(C(=O)c1ccc2nc(N)c3cnn(C)c3c2c1)[C@@H]1COc2cc(OC3COC3)ccc21` [Example 677, 4-amino-N,1-dimethyl-N-((3S)-6-(3-oxetanyloxy)-2,3-dihydro-1-benzofuran-3-yl)-1H-pyrazolo[4,3-c]quinoline-8-carboxamide] are 9810 nM and 137 nM.
Consider `COCCOc1ccc2c(c1)OC[C@H]2N(C)C(=O)c1ccc2nc(N)c3cnn(C)c3c2c1` [Example 678, 4-amino-N-((3S)-6-(2-methoxyethoxy)-2,3-dihydro-1-benzofuran-3-yl)-N,1-dimethyl-1H-pyrazolo[4,3-c]quinoline-8-carboxamide], for which the half-maximal inhibitory concentration (IC50) in the test with HCT116 WT cells came to 2780 nM; in the test with HCT116 MTAP null cells, 29 nM.
Consider `Cc1ccc2c(n1)COC[C@H]2N(C)C(=O)c1ccc2nc(N)c3cnn(C)c3c2c1` [Example 679, (S)-4-amino-N,1-dimethyl-N-(2-methyl-5,8-dihydro-6H-pyrano[3,4-b]pyridin-5-yl)-1H-pyrazolo[4,3-c]quinoline-8-carboxamide], for which the IC50 in the test on HCT116 WT cells was 2270 nM; in the test with HCT116 MTAP null cells, 26 nM.
Consider `Cc1ccc2c(c1)OC[C@H]2N(C)C(=O)c1ccc2nc(N)c3cnn(C)c3c2c1` [Example 683, 4-amino-N,1-dimethyl-N-((3S)-6-methyl-2,3-dihydro-1-benzofuran-3-yl)-1H-pyrazolo[4,3-c]quinoline-8-carboxamide], for which the IC50 is 3580 nM in the test with HCT116 WT cells and 38 nM in the test on HCT116 MTAP null cells.
In the case of `CN(C(=O)c1ccc2nc(N)c3cnn(C)c3c2c1)[C@@H]1COCc2nc(C3CC3)ccc21` [Example 684, 4-amino-N-((5S)-2-cyclopropyl-5,8-dihydro-6H-pyrano[3,4-b]pyridin-5-yl)-N,1-dimethyl-1H-pyrazolo[4,3-c]quinoline-8-carboxamide], the IC50 with HCT116 WT cells came to 227 nM; in the test on HCT116 MTAP null cells it was 6 nM.
The corresponding values for `COC(=O)c1ccc2c(c1)OC[C@H]2N(C)C(=O)c1ccc2nc(N)c3cnn(C)c3c2c1` [Example 685, methyl (S)-3-(4-amino-N,1-dimethyl-1H-pyrazolo[4,3-c]quinoline-8-carboxamido)-2,3-dihydrobenzofuran-6-carboxylate] are 1520 nM and 22 nM.
Consider `CN(C(=O)c1ccc2nc(N)c3cnn(C)c3c2c1)[C@@H]1COc2cc(CO)ccc21` [Example 686, (S)-4-amino-N-(6-(hydroxymethyl)-2,3-dihydrobenzofuran-3-yl)-N,1-dimethyl-1H-pyrazolo[4,3-c]quinoline-8-carboxamide], for which the values for the IC50 in the test with HCT116 WT cells and with HCT116 MTAP null cells were 11400 nM and 129 nM, respectively.
Turning to `CN(C(=O)c1ccc2nc(N)c3cnn(C)c3c2c1)[C@@H]1COc2cc(Cl)ccc21` [Example 687, (S)-4-amino-N-(6-chloro-2,3-dihydrobenzofuran-3-yl)-N,1-dimethyl-1H-pyrazolo[4,3-c]quinoline-8-carboxamide 2,2,2-trifluoroacetate], the figures for the IC50 with HCT116 WT cells and in the test on HCT116 MTAP null cells were 846 nM and 12 nM, respectively.
Take `CN(C(=O)c1ccc2nc(N)c3cnn(C)c3c2c1)[C@@H]1COc2cc(C3CCOCC3)ccc21` [Example 688, (S)-4-amino-N,1-dimethyl-N-(6-(tetrahydro-2H-pyran-4-yl)-2,3-dihydrobenzofuran-3-yl)-1H-pyrazolo[4,3-c]quinoline-8-carboxamide]: the half-inhibitory concentration (IC50) with HCT116 WT cells turned out to be 431 nM; with HCT116 MTAP null cells, 5 nM.
As to `CC(=O)N1CC=C(c2ccc3c(c2)OCC3N(C)C(=O)c2ccc3nc(N)c4c(c3c2)COC4)CC1` (centres unmarked) [Example 689, N-(6-(1-acetyl-1,2,3,6-tetrahydropyridin-4-yl)-2,3-dihydrobenzofuran-3-yl)-4-amino-N-methyl-1,3-dihydrofuro[3,4-c]quinoline-8-carboxamide], the results for the half-inhibitory concentration (IC50) in the test with HCT116 WT cells and in the test on HCT116 MTAP null cells were 4540 nM and 101 nM, respectively.
